Our source for the IC50 values is patent US10717746B2, “Chemical compounds” (ASTRAZENECA AB, priority 2015, dated 2020).

The target in assay [1] is T1, CDK9/CycT1 (Homo sapiens (Human), UniProt P50750). The experiment in a line: CDK9 kinase assay, ATP concentration at Km (mobility shift, Caliper LC3000). Particulars: 6 μM ATP, 3 nM CDK9/CycT1; read-out: CDK9 ATP conc. at Km (IC50). Format: biochemical. In short, it runs like this: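 3 nM CDK9/CycT1 with 6 µM ATP and 1.5 µM FITC-peptide (HEPES pH 7.2) was preincubated with compound 15 min at 25 °C. Reaction started with 10 mM MgCl2 and ran 90 min at 25 °C. Turnover was measured by mobility-shift separation of phosphorylated and unphosphorylated peptide.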
T1 sequence (P50750 whole entry): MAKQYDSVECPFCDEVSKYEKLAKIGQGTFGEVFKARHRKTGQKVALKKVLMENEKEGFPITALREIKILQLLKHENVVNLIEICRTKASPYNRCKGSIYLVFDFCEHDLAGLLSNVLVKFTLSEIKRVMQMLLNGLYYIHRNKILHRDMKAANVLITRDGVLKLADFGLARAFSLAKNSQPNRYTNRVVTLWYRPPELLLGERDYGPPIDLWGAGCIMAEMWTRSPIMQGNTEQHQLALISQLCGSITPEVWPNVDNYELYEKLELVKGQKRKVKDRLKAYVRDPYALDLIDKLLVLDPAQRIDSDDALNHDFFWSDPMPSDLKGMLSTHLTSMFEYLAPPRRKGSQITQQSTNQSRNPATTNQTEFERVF
T1 sequence (O60563 whole entry partner): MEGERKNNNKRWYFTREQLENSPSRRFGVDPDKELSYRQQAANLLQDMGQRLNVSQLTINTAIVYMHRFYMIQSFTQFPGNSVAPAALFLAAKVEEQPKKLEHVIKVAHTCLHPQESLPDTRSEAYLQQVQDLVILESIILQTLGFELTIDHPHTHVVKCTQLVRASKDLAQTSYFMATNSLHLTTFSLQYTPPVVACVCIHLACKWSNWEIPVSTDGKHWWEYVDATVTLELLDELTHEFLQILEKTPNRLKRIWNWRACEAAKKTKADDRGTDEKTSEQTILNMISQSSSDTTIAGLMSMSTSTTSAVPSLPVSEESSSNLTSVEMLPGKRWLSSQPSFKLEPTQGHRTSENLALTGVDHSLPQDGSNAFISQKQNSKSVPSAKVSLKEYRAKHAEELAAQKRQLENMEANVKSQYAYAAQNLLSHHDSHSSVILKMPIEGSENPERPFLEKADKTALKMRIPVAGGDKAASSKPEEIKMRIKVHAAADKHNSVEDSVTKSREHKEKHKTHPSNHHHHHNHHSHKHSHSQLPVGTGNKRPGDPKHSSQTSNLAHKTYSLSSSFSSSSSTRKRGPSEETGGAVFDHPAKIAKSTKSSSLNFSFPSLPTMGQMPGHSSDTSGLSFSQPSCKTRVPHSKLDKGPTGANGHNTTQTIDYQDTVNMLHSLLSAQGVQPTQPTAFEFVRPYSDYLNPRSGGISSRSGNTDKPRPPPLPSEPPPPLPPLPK

In assay [2] the target is T1, CDK9/CycT1. The experiment in a line: CDK9 kinase assay, high ATP concentration (5 mM ATP). Particulars: 1.5 nM CDK9, read-out: CDK9 High ATP conc. (IC50). Format: biochemical. Summed up:
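Caliper mobility-shift read-out of phosphorylated vs unphosphorylated FITC-peptide (1.5 μM), giving percent turnover. Final 1.5 nM CDK9/CycT1 and 5 mM ATP in 50 mM HEPES pH 7.2, 1 mM DTT, 10 mM MgCl2; compound preincubated 15 min, reaction 90 min at 25° C, stopped with EDTA.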

The subject of assay [3] is phosphorylation of RNA Polymerase II (RNAPII) at the Ser2 site in MCF7 cells. The experiment in a line: MCF7 pSer2 RNAPII MOA assay (immunofluorescence). Particulars: Homo sapiens, MCF7, 6 h, 6-hr treatment, read-out: p-Ser 2 RNAPII (IC50). Format: cell-based. Summed up:
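MCF7 cells (2500/well), plated overnight, were treated for 6 h at 37° C. with CDK9 inhibitors in a 7-point dose response from 3 μM to 0.004 μM. Cells were then fixed, permeabilized and immunostained for Ser2-phospho RNAPII with Alexa Fluor 488 secondary plus DAPI. Per-well phosphorylation was read by microplate cytometry.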

A further assay has as its system MV411 cells. Briefly: MV411 caspase activity assay (Caspase-Glo 3/7). It counts as cell-based. Particulars: Homo sapiens, MV4-11, 6 h, 6-hr treatment, caspase 3/7 induction. In short, it runs like this: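 MV411 AML cells (3000/well) were plated overnight, then treated with compound for 6 h at 37 °C. Caspase-3/7 activity was read as luminescence after 30 min with Caspase-Glo 3/7 reagent at room temperature.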

SMILES strings stand for the structures.

`CC(=O)N[C@@H]1CCC[C@H](C(=O)Nc2cc(-c3cnn4c3CC(C)(C)C4)ccn2)C1` [Example 16, (1S,3R)-3-acetamido-N-(4-(5,5-dimethyl-5,6-dihydro-4H-pyrrolo[1,2-b]pyrazol-3-yl)pyridin-2-yl)cyclohexanecarboxamide]: the IC50 is less than 3 nM on CDK9/CycT1 [1], 28 nM at CDK9/CycT1 [2], 150 nM in assay [3] and 100 nM in the assay on MV411 cells.

Regarding `CC(=O)N[C@@H]1CCC[C@H](C(=O)Nc2cc(-c3cnn4c3CN(C)CC4)c(Cl)cn2)C1` [Example 13, (1S,3R)-3-acetamido-N-(5-chloro-4-(5-methyl-4,5,6,7-tetrahydropyrazolo[1,5-a]pyrazin-3-yl)pyridin-2-yl)cyclohexanecarboxamide], the IC50 on CDK9/CycT1 [1] came out at 6 nM; on CDK9/CycT1 [2], 240 nM; in assay [3], 820 nM; in the assay on MV411 cells it was 914 nM.

With `CC(=O)N[C@@H]1CCC[C@H](C(=O)Nc2cc(-c3cnn4c3CCCCC4)c(Cl)cn2)C1` [Example 66, (1S,3R)-3-acetamido-N-(5-chloro-4-(5,6,7,8-tetrahydro-4H-pyrazolo[1,5-a]azepin-3-yl)pyridin-2-yl)cyclohexanecarboxamide], the IC50 at CDK9/CycT1 [1] was less than 3 nM; at CDK9/CycT1 [2] it was 23 nM; in assay [3], 92 nM; in the assay with MV411 cells, 183 nM.

With `CC(=O)N[C@@H]1CCC[C@H](C(=O)Nc2cc(-c3cnn4c3CCCC4)c(C)cn2)C1` [Example 77, (1S,3R)-3-acetamido-N-(5-methyl-4-(4,5,6,7-tetrahydropyrazolo[1,5-a]pyridin-3-yl)pyridin-2-yl)cyclohexanecarboxamide], the IC50 is 4 nM at CDK9/CycT1 [1], 213 nM at CDK9/CycT1 [2], 338 nM in assay [3] and 543 nM in the assay on MV411 cells.

For the compound `CC(=O)N[C@@H]1CCC[C@H](C(=O)Nc2cc(-c3cnn4c3CCCC4)ncn2)C1` [Example 28, (1S,3R)-3-acetamido-N-(6-(4,5,6,7-tetrahydropyrazolo[1,5-a]pyridin-3-yl)pyrimidin-4-yl)cyclohexanecarboxamide], the IC50 on CDK9/CycT1 [1] was 36 nM; on CDK9/CycT1 [2], 4710 nM; in assay [3] it was greater than 3000 nM; in the assay with MV411 cells, 6600 nM.

Turning to `CC1(C)Cc2c(-c3ccnc(NC(=O)[C@H]4CCC[C@@H](NC(=O)C5(O)CC5)C4)c3)cnn2C1` [Example 17, (1S,3R)—N-(4-(5,5-dimethyl-5,6-dihydro-4H-pyrrolo[1,2-b]pyrazol-3-yl)pyridin-2-yl)-3-(1-hydroxycyclopropanecarboxamido)cyclohexanecarboxamide], the IC50 at CDK9/CycT1 [1] was determined as 4 nM; at CDK9/CycT1 [2], 36 nM; in assay [3], 207 nM; in the assay on MV411 cells it was 140 nM.

As for `CC(=O)N[C@@H]1CC[C@H](C(=O)Nc2cc(-c3cnn4c3CC(C)(C)C4)c(Cl)cn2)C1` [Example 48, (1S,3R)-3-acetamido-N-(5-chloro-4-(5,5-dimethyl-5,6-dihydro-4H-pyrrolo[1,2-b]pyrazol-3-yl)pyridin-2-yl)cyclopentanecarboxamide], the IC50 is less than 3 nM at CDK9/CycT1 [1], 3 nM at CDK9/CycT1 [2], 40 nM in assay [3] and 15 nM with MV411 cells.

As to `CC1(C)Cc2c(-c3cc(NC(=O)[C@H]4CCC[C@@H](NC(=O)C5COC5)C4)ncc3Cl)cnn2C1` [Example 19, N-((1R,3S)-3-((5-chloro-4-(5,5-dimethyl-5,6-dihydro-4H-pyrrolo[1,2-b]pyrazol-3-yl)pyridin-2-yl)carbamoyl)cyclohexyl)oxetane-3-carboxamide], the half-maximal inhibitory concentration (IC50) on CDK9/CycT1 [1] is less than 3 nM; on CDK9/CycT1 [2] it was less than 3 nM; in assay [3], 13 nM; in the assay on MV411 cells, 11 nM.

`O=C(Nc1cc(-c2cnn3c2CCCC3)c(Cl)cn1)[C@H]1CCC[C@@H](NC(=O)[C@H]2CCCO2)C1` [Example 36, (R)—N-((1R,3S)-3-((5-chloro-4-(4,5,6,7-tetrahydropyrazolo[1,5-a]pyridin-3-yl)pyridin-2-yl)carbamoyl)cyclohexyl)tetrahydrofuran-2-carboxamide]: the IC50 was less than 3 nM on CDK9/CycT1 [1], 39 nM on CDK9/CycT1 [2], 38 nM in assay [3] and 104 nM in the assay on MV411 cells.

As to `CC(=O)N[C@@H]1CCC[C@H](C(=O)Nc2cc(-c3nnn4c3CCCC4)c(Cl)cn2)C1` [Example 49, (1S,3R)-3-acetamido-N-(5-chloro-4-(4,5,6,7-tetrahydro-[1,2,3]triazolo[1,5-a]pyridin-3-yl)pyridin-2-yl)cyclohexanecarboxamide], the IC50 was 39 nM at CDK9/CycT1 [1], 4400 nM on CDK9/CycT1 [2], greater than 2870 nM in assay [3] and 7980 nM with MV411 cells.

On to `O=C(Nc1cc(-c2cnn3c2CCCC3)c(Cl)cn1)[C@H]1CCC[C@@H](NC(=O)[C@@H]2CCCO2)C1` [Example 35, (S)—N-((1R,3S)-3-((5-chloro-4-(4,5,6,7-tetrahydropyrazolo[1,5-a]pyridin-3-yl)pyridin-2-yl)carbamoyl)cyclohexyl)tetrahydrofuran-2-carboxamide], for which the IC50 at CDK9/CycT1 [1] is less than 3 nM; on CDK9/CycT1 [2] it was 23 nM; in assay [3], 40 nM; in the assay with MV411 cells, 125 nM.

Regarding `CC(=O)N[C@@H]1CCC[C@H](C(=O)Nc2cc(-c3cnc4n3CCC4)c(Cl)cn2)C1` [Example 12, (1S,3R)-3-acetamido-N-(5-chloro-4-(6,7-dihydro-5H-pyrrolo[1,2-a]imidazol-3-yl)pyridin-2-yl)cyclohexanecarboxamide], the IC50 was found to be 5 nM on CDK9/CycT1 [1], 350 nM on CDK9/CycT1 [2], 830 nM in assay [3] and 701 nM with MV411 cells.

As for `C[C@H](O)C(=O)N[C@@H]1CCC[C@H](C(=O)Nc2cc(-c3cnn4c3CCCC4)c(Cl)cn2)C1` [Example 37, (1S,3R)—N-(5-chloro-4-(4,5,6,7-tetrahydropyrazolo[1,5-a]pyridin-3-yl)pyridin-2-yl)-3-((S)-2-hydroxypropanamido)cyclohexanecarboxamide], the IC50 at CDK9/CycT1 [1] was less than 3 nM; at CDK9/CycT1 [2], 38 nM; in assay [3], 149 nM; in the assay on MV411 cells it was 177 nM.

In the case of `O=C(Nc1cc(-c2cnn3c2CCCC3)c(Cl)cn1)[C@H]1CCC[C@@H](NC(=O)C2(O)CC2)C1` [Example 32, (1S,3R)—N-(5-chloro-4-(4,5,6,7-tetrahydropyrazolo[1,5-a]pyridin-3-yl)pyridin-2-yl)-3-(1-hydroxycyclopropanecarboxamido)cyclohexanecarboxamide], the IC50 at CDK9/CycT1 [1] was less than 3 nM; on CDK9/CycT1 [2] it was 17 nM; in assay [3], 55 nM; in the assay on MV411 cells it was 136 nM.

On to `CC1(C)Cc2c(-c3cc(NC(=O)[C@H]4CCC[C@@H](NC(=O)C5(O)CC5)C4)ncc3Cl)cnn2C1` [Example 21, (1S,3R)—N-(5-chloro-4-(5,5-dimethyl-5,6-dihydro-4H-pyrrolo[1,2-b]pyrazol-3-yl)pyridin-2-yl)-3-(1-hydroxycyclopropanecarboxamido)cyclohexanecarboxamide], for which the IC50 on CDK9/CycT1 [1] was less than 3 nM; at CDK9/CycT1 [2], less than 3 nM; in assay [3], less than 7 nM; in the assay with MV411 cells, 13 nM.

As for `CC(=O)N[C@@H]1CCC[C@H](C(=O)Nc2cc(-c3cnn4c3CC(C)(C)C4)c(F)cn2)C1` [Example 25, (1S,3R)-3-acetamido-N-(4-(5,5-dimethyl-5,6-dihydro-4H-pyrrolo[1,2-b]pyrazol-3-yl)-5-fluoropyridin-2-yl)cyclohexanecarboxamide], the IC50 at CDK9/CycT1 [1] is less than 3 nM; at CDK9/CycT1 [2] it was 4 nM; in assay [3], 25 nM; in the assay with MV411 cells, 29 nM.

Turning to `CC(=O)N[C@@H]1CCC[C@H](C(=O)Nc2cc(-c3cnn4c3CCC4)c(Cl)cn2)C1` [Example 10, (1S,3R)-3-acetamido-N-(5-chloro-4-(5,6-dihydro-4H-pyrrolo[1,2-b]pyrazol-3-yl)pyridin-2-yl)cyclohexanecarboxamide], the IC50 at CDK9/CycT1 [1] was determined as 5 nM; on CDK9/CycT1 [2], 217 nM; in assay [3], 550 nM; in the assay with MV411 cells it was 333 nM.

As to `CC(=O)N[C@@H]1CCC[C@H](C(=O)Nc2cc(-c3cnn4c3CC(C)C4)c(Cl)cn2)C1` (stereo partly drawn) [Example 40, (1S,3R)-3-acetamido-N-(5-chloro-4-(5-methyl-5,6-dihydro-4H-pyrrolo[1,2-b]pyrazol-3-yl)pyridin-2-yl)cyclohexanecarboxamide], the IC50 at CDK9/CycT1 [1] was less than 3 nM; on CDK9/CycT1 [2], 28 nM; in assay [3] it was 57 nM; in the assay on MV411 cells, 67 nM.

Turning to `Cc1cnc(NC(=O)[C@H]2CCC[C@@H](NC(=O)CO)C2)cc1-c1cnn2c1CC(C)(C)C2` [Example 75, (1S,3R)—N-(4-(5,5-dimethyl-5,6-dihydro-4H-pyrrolo[1,2-b]pyrazol-3-yl)-5-methylpyridin-2-yl)-3-(2-hydroxyacetamido)cyclohexanecarboxamide], the IC50 at CDK9/CycT1 [1] was less than 3 nM; on CDK9/CycT1 [2], 29 nM; in assay [3] it was 67 nM; in the assay on MV411 cells, 111 nM.
